In patent US20130116277A1, “ALDO-KETO REDUCTASE SUBFAMILY 1C3 (AKR1C3) INHIBITORS” (priority 2007, published 2013):
“And” between values parts separate entries of the source, which are not always exact repeats. Equal values may be shown once. Read-outs that look alike come from different tables or passages of the source. Values belong to the molecule of their own block, whether it stands above or below them.

Assays:
AKR1C3 [1] = target: T1, AKR1C3 (Homo sapiens, UniProt P42330); assay: cell-based
T1 sequence (P42330 1-323): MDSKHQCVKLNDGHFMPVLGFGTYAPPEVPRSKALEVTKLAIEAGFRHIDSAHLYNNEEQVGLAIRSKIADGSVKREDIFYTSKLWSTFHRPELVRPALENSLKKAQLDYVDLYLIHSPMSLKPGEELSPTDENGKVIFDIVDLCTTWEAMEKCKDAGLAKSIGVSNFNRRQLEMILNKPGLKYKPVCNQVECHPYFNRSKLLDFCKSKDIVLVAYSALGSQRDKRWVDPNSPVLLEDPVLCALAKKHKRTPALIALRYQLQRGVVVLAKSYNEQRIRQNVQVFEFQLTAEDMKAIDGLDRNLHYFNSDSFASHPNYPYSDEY

[2] = Liver microsome incubation (HLM Phase I and Phase I + II), LC-MS/MS; type: in vitro ADME, human; settings: for microsomal CLint: human, human liver microsomes
Experimental: Stock solutions of prespective AKR1C3 inhibitors were prepared in DMSO at 5 mM and were incubated with liver microsomes (0.1 mg/mL). Incubations were conducted at 37° C. in a shaking water bath for 10 minutes (microsomes). Incubation durations were selected based on time course study (microsomes) or published literature (recombinant enzymes). Prepared samples were analyzed using LC-MS/MS.

AKR1C3 [3] = target: T1, AKR1C3; assay: Purified AKR1C3 enzyme assay, [14C]-A'dione to testosterone, TLC based; type: biochemical; design: GST (N); made in house; host or cells: bacterial culture, IPTG induced (E. coli BL21-DE3 is named only for the crystallography preparation)
Experimental: Perkin Elmer; […] American Radiolabeled Chemicals, St. Louis, Mo.). The reaction was stopped by the addition of 400 μl ethyl acetate, vortexed, and spun for […] at 2000 rpm. The upper layer was transferred to a new tube and air dried. The pellet was resuspended in 25 μl of methanol, spotted on TLC plates and fractionated in TLC chamber with 3:1 chloroform:ethyl acetate. Once the mobile phase reached the top, the plates were dried and exposed to a phosphoimager screen overnight. […] Perkin Elmer) was incubated at 37° C. for 60 min. The reaction was stopped by the addition of 400 μl ethyl acetate, vortexed, and spun for […] at 2000 rpm. The upper layer was transferred to a new tube and air dried. The pellet was resuspended in 25 μl of methanol, spotted on TLC plates and fractionated in TLC chamber with 3:1 chloroform:ethyl acetate. Once the mobile phase reached the top, the plates were dried and exposed to a phosphoimager screen overnight.

ER-beta = target: T2, ER-beta (Homo sapiens, UniProt Q92731); assay: ER-beta transactivation (ERE-LUC luciferase) in HEK-293 cells; type: cell-based; settings: for EC50: drug alone, read-out: Agonist ER-β; for IC50 / Antagonist ER-β, % of E2: antagonist mode; for IC50: in combination with estradiol, read-out: Antagonist ER-β;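 as to all read-outs here: HEK-293 cells transiently transfected with an ER-β expression plasmid and ERE-LUC reporter, firefly luciferase read-out normalized to co-transfected Renilla luciferase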
T2 construct: expressed in transfected cells; host or cells: HEK-293
T2 sequence (Q92731 whole entry, species assumed): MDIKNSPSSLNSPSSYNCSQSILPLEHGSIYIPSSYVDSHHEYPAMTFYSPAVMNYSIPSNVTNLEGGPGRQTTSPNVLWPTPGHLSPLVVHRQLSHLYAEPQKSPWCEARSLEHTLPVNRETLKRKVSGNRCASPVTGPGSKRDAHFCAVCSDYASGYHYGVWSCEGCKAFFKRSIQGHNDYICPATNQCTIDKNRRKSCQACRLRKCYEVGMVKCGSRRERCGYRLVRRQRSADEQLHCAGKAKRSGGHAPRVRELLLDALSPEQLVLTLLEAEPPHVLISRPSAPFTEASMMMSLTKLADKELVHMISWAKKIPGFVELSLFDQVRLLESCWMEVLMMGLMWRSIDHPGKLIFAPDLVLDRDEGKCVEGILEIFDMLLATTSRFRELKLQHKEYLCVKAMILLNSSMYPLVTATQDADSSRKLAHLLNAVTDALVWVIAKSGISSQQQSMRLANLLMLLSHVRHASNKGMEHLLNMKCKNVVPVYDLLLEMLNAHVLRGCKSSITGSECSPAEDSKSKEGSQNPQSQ

ER-β = ER-β (Homo sapiens, UniProt Q92731); assay: ER-β ligand binding domain competitive binding with [3H]Estradiol
Chain of ER-β (Q92731 264-498 limits assumed, species assumed): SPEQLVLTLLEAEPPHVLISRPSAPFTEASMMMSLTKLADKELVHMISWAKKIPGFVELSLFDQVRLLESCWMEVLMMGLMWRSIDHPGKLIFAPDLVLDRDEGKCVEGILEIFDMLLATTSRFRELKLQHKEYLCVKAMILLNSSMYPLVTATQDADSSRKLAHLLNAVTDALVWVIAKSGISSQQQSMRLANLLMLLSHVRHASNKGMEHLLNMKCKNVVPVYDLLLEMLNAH

ER-alpha = target: T3, ER-alpha (Homo sapiens, UniProt P03372); assay: ER-alpha transactivation (ERE-LUC luciferase) in HEK-293 cells; type: cell-based; settings: for EC50 / Agonist ER-α, % of E2: agonist mode; for EC50: drug alone, read-out: Agonist ER-α; for IC50: in combination with estradiol, read-out: Antagonist ER-α;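 as to all read-outs here: HEK-293 cells co-transfected with an ER-alpha expression plasmid, an ERE-driven firefly luciferase reporter and a CMV Renilla control, with the firefly signal normalized to Renilla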
T3 construct: expressed in transfected cells; host or cells: HEK-293
T3 sequence (P03372 1-595): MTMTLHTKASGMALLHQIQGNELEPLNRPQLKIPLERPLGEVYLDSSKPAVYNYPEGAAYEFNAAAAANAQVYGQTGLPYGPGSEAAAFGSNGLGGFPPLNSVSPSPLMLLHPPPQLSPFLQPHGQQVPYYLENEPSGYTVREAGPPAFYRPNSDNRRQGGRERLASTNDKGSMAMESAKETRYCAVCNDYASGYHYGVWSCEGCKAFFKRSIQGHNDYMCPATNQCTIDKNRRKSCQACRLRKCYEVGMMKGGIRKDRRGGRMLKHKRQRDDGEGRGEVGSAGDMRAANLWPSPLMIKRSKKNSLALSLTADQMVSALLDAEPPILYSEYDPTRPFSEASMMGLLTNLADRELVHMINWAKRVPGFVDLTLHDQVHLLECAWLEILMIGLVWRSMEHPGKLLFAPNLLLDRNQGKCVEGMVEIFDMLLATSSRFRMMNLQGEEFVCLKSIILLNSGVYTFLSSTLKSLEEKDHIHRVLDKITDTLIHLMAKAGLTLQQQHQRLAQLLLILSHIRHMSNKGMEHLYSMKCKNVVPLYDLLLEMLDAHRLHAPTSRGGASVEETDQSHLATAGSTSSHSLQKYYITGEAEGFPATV

[4] = HLM Phase I + II, read-out: HLM Phase I + II CLint
[5] = HLM Phase I, read-out: HLM Phase I CLint
[6] = read-out: % inhibition from control HSD-5 (10 uM)
[7] = 10 μM inhibitor, purified AKR1C3 TLC based enzyme assay, read-out: AKR1C3 inhibition at 10 μM

SMILES: COc1cc(C=CC(=O)O)cc(OC)c1OC [3,4,5 trimethoxy cinnamic acid, reference compound]
IC50 (AKR1C3 [1]): > 10 µM

SMILES: O=c1c2ccc(O)cc2c(-c2ccccc2)cn1-c1ccc(O)cc1 [Compound 15a, 6-hydroxy-2-(4-hydroxyphenyl)-4-phenylisoquinolin-1(2H)-one]
HLM Phase I T-1/2 ([2]; HLM Phase I): 152.8 min
HLM Phase I + II T-1/2 ([2]; HLM Phase I + II): 23.3 min
microsomal CLint [2, 4]: 29.7 µL/min/mg
microsomal CLint [2, 5]: 4.5 µL/min/mg
inhibition at 10 µM (AKR1C3 [3]; [6]): 0%
EC50 (ER-beta; agonist mode): > 10 µM
IC50 (ER-beta): 0.918 µM
IC50 (AKR1C3 [1]): 16.1 µM
Ki (ER-β): 130 nM

SMILES: COc1ccc(-c2cn(-c3ccc(O)cc3)c(=O)c3c(O)cc(O)cc23)cc1 [Compound 15g, 6,8-dihydroxy-2-(4-hydroxyphenyl)-4-(4-methoxyphenyl)isoquinolin-1(2H)-one]
HLM Phase I CLint ([2]; HLM Phase I): 35.8 µL/min/mg
HLM Phase I T-1/2 ([2]; HLM Phase I): 16.5 min and 19.32 min
HLM Phase I + II T-1/2 ([2]; HLM Phase I + II): 1.6 min
microsomal CLint [2, 4]: 422 µL/min/mg
microsomal CLint [2, 5]: 42.1 µL/min/mg
inhibition at 10 µM (AKR1C3 [3]; [6]): 40%
EC50 (ER-beta; agonist mode): > 10 µM
IC50 (ER-beta): 0.0224 µM
IC50 (AKR1C3 [1]): 4.52 µM
Ki (ER-β): 2.77 nM

SMILES: C/C=C/c1cn(-c2ccc(O)cc2)c(=O)c2c(O)cc(O)cc12 [Compound 15i]
inhibition at 10 µM (AKR1C3 [3]; [6]): 10%
EC50 (ER-beta; agonist mode): > 10 µM
IC50 (ER-beta): 0.0322 µM and 0.0663 µM
EC50 (ER-alpha): > 10 µM
IC50 (ER-alpha; antagonist mode): 1.97 µM and 1.79 µM
Ki (ER-β): 1.66 nM

SMILES: COc1ccc2c(=O)n(-c3ccc(CO)c(OC)c3)cc(-c3ccc(C(F)(F)F)cc3)c2c1 [Compound 25, 2-(4-(hydroxymethyl)-3-methoxyphenyl)-6-methoxy-4-(4-(trifluoromethyl)phenyl)isoquinolin-1(2H)-one]
inhibition at 10 µM (AKR1C3 [3]; [7]): 0%

SMILES: CNS(=O)(=O)c1ccc(-c2cn(-c3ccc(O)cc3)c(=O)c3ccc(O)cc23)cc1 [Compound 36, 4-(6-hydroxy-2-(4-hydroxyphenyl)-1-oxo-1,2-dihydroisoquinolin-4-yl)-N-methylbenzenesulfonamide]
inhibition at 10 µM (AKR1C3 [3]; [7]): 20%
inhibition at 10 µM (AKR1C3 [3]; [6]): 20%
EC50 (ER-beta; agonist mode): > 10 µM
EC50 (ER-alpha): > 10 µM
IC50 (ER-alpha; antagonist mode): > 10 µM

SMILES: CS(=O)(=O)c1ccc(-c2cn(-c3ccc(O)cc3)c(=O)c3ccc(O)cc23)cc1 [Compound 37, 6-hydroxy-2-(4-hydroxyphenyl)-4-(4-(methylsulfonyl)phenyl)isoquinolin-1(2H)-one]
HLM Phase I T-1/2 (min) ([2]; HLM Phase I): stable
HLM Phase I + II T-1/2 ([2]; HLM Phase I + II): 3.8 min
microsomal CLint [2, 4]: 183 µL/min/mg
inhibition at 10 µM (AKR1C3 [3]; [7]): 45%
inhibition at 10 µM (AKR1C3 [3]; [6]): 45%
EC50 (ER-beta; agonist mode): > 10 µM
EC50 (ER-alpha): > 10 µM
IC50 (ER-alpha; antagonist mode): > 10 µM

SMILES: O=C(O)c1ccc(-c2cn(-c3ccc(O)cc3)c(=O)c3ccc(O)cc23)cc1 [Compound 43, 4-(6-hydroxy-2-(4-hydroxyphenyl)-1-oxo-1,2-dihydroisoquinolin-4-yl)benzoic acid]
inhibition at 10 µM (AKR1C3 [3]; [7]): 42%
inhibition at 10 µM (AKR1C3 [3]; [6]): 42%
EC50 (ER-beta; agonist mode): > 10 µM
IC50 (ER-beta): > 10 µM
EC50 (ER-alpha): > 10 µM
IC50 (ER-alpha; antagonist mode): > 10 µM

SMILES: O=c1c2ccc(O)cc2c(-c2cc(F)c(F)c(F)c2)cn1-c1ccc(O)cc1 [Compound 79, 6-hydroxy-2-(4-hydroxyphenyl)-4-(3,4,5-trifluorophenyl)isoquinolin-1(2H)-one]
inhibition at 10 µM (AKR1C3 [3]; [7]): 44%
inhibition at 10 µM (AKR1C3 [3]; [6]): 44%
Agonist ER-β, % of E2 (ER-beta; agonist mode, @1000 nM): 45.0% of E2 @1000 nM
Antagonist ER-β, % of E2 (ER-beta; @10k nM): 45.3% of E2 @10k nM
Agonist ER-α, % of E2 (ER-alpha; @1000 nM): 32.6% of E2 @1000 nM
Antagonist ER-α, % of E2 (ER-alpha; antagonist mode, @10k nM): 51% of E2 @10k nM

SMILES: N#Cc1cc(O)cc2c(-c3cc(F)c(F)c(F)c3)cn(-c3ccc(O)cc3)c(=O)c12 [Compound 85, 6-hydroxy-2-(4-hydroxyphenyl)-1-oxo-4-(3,4,5-trifluorophenyl)-1,2-dihydroisoquinoline-8-carbonitrile]
inhibition at 10 µM (AKR1C3 [3]; [7]): 86%
inhibition at 10 µM (AKR1C3 [3]; [6]): 86%
EC50 (ER-beta; agonist mode): > 10 µM
Antagonist ER-β, % of E2 (ER-beta; @1000 nM): 59.7% of E2 @1000 nM
Agonist ER-α, % of E2 (ER-alpha; @10k nM): 36.5% of E2 @10k nM
IC50 (ER-alpha; antagonist mode): > 10 µM
IC50 (AKR1C3 [1]): 0.141 µM

SMILES: COC(=N)c1cc(O)cc2c(-c3cc(F)c(F)c(F)c3)cn(-c3ccc(O)cc3)c(=O)c12 [Compound 100, Methyl 6-hydroxy-2-(4-hydroxyphenyl)-1-oxo-4-(3,4,5-trifluorophenyl)-1,2-dihydroisoquinoline-8-carbimidate]
inhibition at 10 µM (AKR1C3 [3]; [7]): 20%
inhibition at 10 µM (AKR1C3 [3]; [6]): 20%

SMILES: N#Cc1cc(O)cc2c(-c3ccc(C(F)(F)F)c(F)c3)cn(-c3ccc(O)cc3)c(=O)c12 [Compound 102, 4-(3-Fluoro-4-(trifluoromethyl)phenyl)-6-hydroxy-2-(4-hydroxyphenyl)-1-oxo-1,2-dihydroisoquinoline-8-carbonitrile]
inhibition at 10 µM (AKR1C3 [3]; [7]): 10%
inhibition at 10 µM (AKR1C3 [3]; [6]): 10%

SMILES: NC(=O)c1cccc(-n2cc(-c3ccc(C(F)(F)F)c(F)c3)c3cc(O)ccc3c2=O)c1 [Compound 214, 3-(4-(3-fluoro-4-(trifluoromethyl)phenyl)-6-hydroxy-1-oxoisoquinolin-2(1H)-yl)benzamide]
IC50 (AKR1C3 [1]): 0.241 µM

SMILES: O=C(O)c1cccc(Nc2ccc(C(F)(F)F)cc2)c1 [DKB-476-065]
IC50 (AKR1C3 [1]): 0.154 µM

SMILES: C[C@@H]1O[C@@H](OC[C@H]2O[C@@H](Oc3c(-c4ccc(O)c(O)c4)oc4cc(O)cc(O)c4c3=O)[C@H](O)[C@@H](O)[C@@H]2O)[C@H](O)[C@H](O)[C@H]1O [Rutin, reference compound]
IC50 (AKR1C3 [1]): > 10 µM

Second part, the molecule after the results:

inhibition at 10 µM (AKR1C3 [3]; [7]): 0%
inhibition at 10 µM (AKR1C3 [3]; [6]): 0%
SMILES: NC(=O)c1cc(O)cc2c(-c3cc(F)c(F)c(F)c3)cn(-c3ccc(O)cc3)c(=O)c12 [Compound 100A, 6-hydroxy-2-(4-hydroxyphenyl)-1-oxo-4-(3,4,5-trifluorophenyl)-1,2-dihydroisoquinoline-8-carboxamide]

inhibition at 10 µM (AKR1C3 [3]; [7]): 0%
inhibition at 10 µM (AKR1C3 [3]; [6]): 0%
SMILES: COC(=N)c1cc(O)cc2c(-c3ccc(C(F)(F)F)c(F)c3)cn(-c3ccc(O)cc3)c(=O)c12 [Compound 102A, Methyl 4-(3-fluoro-4-(trifluoromethyl)phenyl)-6-hydroxy-2-(4-hydroxyphenyl)-1-oxo-1,2-dihydroisoquinoline-8-carbimidate]

inhibition at 10 µM (AKR1C3 [3]; [7]): 0%
inhibition at 10 µM (AKR1C3 [3]; [6]): 0%
SMILES: NC(=O)c1cc(O)cc2c(-c3ccc(C(F)(F)F)c(F)c3)cn(-c3ccc(O)cc3)c(=O)c12 [Compound 102B, 4-(3-fluoro-4-(trifluoromethyl)phenyl)-6-hydroxy-2-(4-hydroxyphenyl)-1-oxo-1,2-dihydroisoquinoline-8-carboxamide]

inhibition at 10 µM (AKR1C3 [3]; [6]): 5%
SMILES: COC(=O)c1ccc(-n2ccc3cc(O)ccc3c2=O)cc1CBr [Compound 104A, methyl 2-(bromomethyl)-4-(6-hydroxy-1-oxoisoquinolin-2(1H)-yl)benzoate]
